In patent publication US9532990B2 (Zhejiang DTRM Biopharma Co. Ltd., priority 2014, dated 2017):
Where two headings read alike, the source gives them in different places.

Biological target: BTK wild type (Homo sapiens (Human), UniProt Q06187)
Test: Inhibition assay of BTK kinase activity (HTRF)
Type: biochemical
Description: Inhibition Assay of BTK Kinase Activity:
The enzyme reaction mixture of BTK wild type standard HTRF assay contained 1 nM BTK wild type, 1 μM biotin-TK1 peptide, and 30 μM ATP in a buffer. The enzyme reaction were carried out at room temperature for 60 minutes. […] The plates were incubated at room temperature for 60 minutes and then read in the Envision plate reader.

[1] = all compounds with IC50 of less 10 nM, read-out: IC50 (BTK)

Chain of BTK wild type (Q06187 whole entry): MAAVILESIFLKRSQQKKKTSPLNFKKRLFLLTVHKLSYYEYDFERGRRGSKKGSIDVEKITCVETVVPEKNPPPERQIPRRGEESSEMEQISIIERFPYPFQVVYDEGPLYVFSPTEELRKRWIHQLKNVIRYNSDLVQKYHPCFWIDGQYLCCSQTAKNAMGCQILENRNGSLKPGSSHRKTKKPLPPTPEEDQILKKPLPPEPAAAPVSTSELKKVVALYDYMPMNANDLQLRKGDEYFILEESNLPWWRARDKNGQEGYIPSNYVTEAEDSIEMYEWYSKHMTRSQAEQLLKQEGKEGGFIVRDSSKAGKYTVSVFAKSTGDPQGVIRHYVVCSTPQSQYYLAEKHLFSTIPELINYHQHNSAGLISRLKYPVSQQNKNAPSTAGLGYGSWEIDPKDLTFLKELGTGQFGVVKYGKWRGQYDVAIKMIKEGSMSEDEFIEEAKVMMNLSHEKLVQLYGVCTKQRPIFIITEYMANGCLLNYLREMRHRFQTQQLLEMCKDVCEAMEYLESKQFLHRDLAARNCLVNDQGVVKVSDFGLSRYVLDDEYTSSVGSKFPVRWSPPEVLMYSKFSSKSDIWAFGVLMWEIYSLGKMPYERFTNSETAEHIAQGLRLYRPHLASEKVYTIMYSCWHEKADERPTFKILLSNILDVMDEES

SMILES | IC50 [1] | IC50 (read-out: BTK IC50) | IC50
C=CC(=O)N1CCCC(n2nc(-c3ccc(Oc4c(F)ccc(F)c4F)cc3F)c3c(N)ncnc32)C1 (stereo not drawn) [Compound 21, 1-(3-(4-amino-3-(2-fluoro-4-(2,3,6-trifluorophenoxy)phenyl)-1H-pyrazolo[3,4-d]pyrimidin-1-yl)piperidin-1-yl)prop-2-en-1-one] | < 10 nM | 5 nM | –
CC#CC(=O)N1CC[C@@H](n2nc(-c3ccc(Oc4cccc(F)c4)cc3F)c3c(N)ncnc32)C1 [Compound 123, 1-((R)-3-(4-amino-3-(2-fluoro-4-(3-fluorophenoxy)phenyl)-1H-pyrazolo[3,4-d]pyrimidin-1-yl)pyrrolidin-1-yl)but-2-yn-1-one] | < 10 nM | – | –
CN/C(=C\[N+](=O)[O-])N1CCCC(n2nc(-c3ccc(Oc4c(F)c(F)cc(F)c4F)cc3F)c3c(N)ncnc32)C1 (stereo not drawn) [Compound 55, 1-[3-[4-amino-3-[2-fluoro-4-(2,3,5,6-three-fluorophenoxy)phenyl]-1H-pyrazolo[3,4-d]pyrimidin-1-yl]-1-piperidinyl]-1-(methylamino)-2-nitro ethylene] | – | 1740 nM | –
C=C(CN1CCCC(n2nc(-c3ccc(Oc4c(F)c(F)cc(F)c4F)cc3F)c3c(N)ncnc32)C1)C(=O)NC (stereo not drawn) [Compound 69, 2-((3-(4-amino-3-(2-fluoro-4-(2,3,5,6-tetrafluorophenoxy)phenyl)-1H-pyrazolo[3,4-d]pyrimidin-1-yl)piperidin-1-yl)methyl)-N-methylacrylamide] | – | 52 nM | –
C=CC(=O)N[C@H]1CC[C@@H](n2nc(-c3ccc(Oc4cccc(F)c4)cc3F)c3c(N)ncnc32)CC1 [Compound 13, N-((1s,4s)-4-(4-amino-3-(2-fluoro-4-(3-fluorophenoxy)phenyl)-1H-pyrazolo[3,4-d]pyrimidin-1-yl)cyclohexyl)acrylamide] | < 10 nM | 1 nM | –
Nc1ncnc2c1c(-c1ccc(Oc3c(F)c(F)cc(F)c3F)cc1F)nn2C1CCCC(N2C(=O)C=CC2=O)C1 (stereo not drawn) [Compound 36, 1-(3-(4-amino-3-(2-fluoro-4-(2,3,5,6-tetrafluorophenoxy)phenyl)-1H-pyrazolo[3,4-d]pyrimidin-1-yl)cyclohexyl)-1H-pyrrole-2,5-dione] | – | 593 nM | –
C=CC(=O)N1CCCC(n2nc(-c3ccc(Oc4cccc(NS(C)(=O)=O)c4)cc3F)c3c(N)ncnc32)C1 (stereo not drawn) [Compound 20, N-(3-(4-(1-(1-acryloylpiperidin-3-yl)-4-amino-1H-pyrazolo[3,4-d]pyrimidin-3-yl)-3-fluorophenoxy)phenyl)methanesulfonamide] | < 10 nM | 4 nM | –
C/C(O)=C(/C#N)C(=O)N1CCCC(n2nc(-c3ccc(C(=O)c4cccc(F)c4)cc3F)c3c(N)ncnc32)C1 (stereo not drawn) [Compound 7, (E)-2-(3-(4-amino-3-(2-fluoro-4-(3-fluorobenzoyl)phenyl)-1H-pyrazolo[3,4-d]pyrimidin-1-yl)piperidine-1-carbonyl)-3-hydroxybut-2-enenitrile] | – | 730 nM | –
Nc1ncnc2c1c(-c1ccc(Oc3c(F)c(F)cc(F)c3F)cc1F)nn2[C@@H]1CCCN(C(=O)CCl)C1 [Compound 99, 1-((R)-3-(4-amino-3-(2-fluoro-4-(2,3,5,6-tetrafluorophenoxy)phenyl)-1H-pyrazolo[3,4-d]pyrimidin-1-yl)piperidin-1-yl)-2-chloroethanone] | < 10 nM | 2 nM | –
C=CC(=O)N1CCC(n2nc3c4c(ncnc42)Nc2cc(Oc4c(F)c(F)cc(F)c4F)ccc2-3)C1 (stereo not drawn) [Compound 24] | – | 1020 nM | –
Nc1ncnc2c1c(-c1ccc(Oc3c(F)c(F)cc(F)c3F)cc1F)nn2[C@@H]1CCN(C(=O)C(=O)O)C1 [Compound 117, 2-((R)-3-(4-amino-3-(2-fluoro-4-(2,3,5,6-tetrafluorophenoxy)phenyl)-1H-pyrazolo[3,4-d]pyrimidin-1-yl)pyrrolidin-1-yl)-2-oxoacetic acid] | – | 712 nM | –
N#CN1CC[C@@H](n2nc(-c3ccc(Oc4c(F)c(F)cc(F)c4F)cc3F)c3c(N)ncnc32)C1 [Compound 118] | – | 57 nM | –
N#CCN1CC[C@@H](n2nc(-c3ccc(Oc4c(F)c(F)cc(F)c4F)cc3F)c3c(N)ncnc32)C1 [Compound 113, 2-((R)-3-(4-amino-3-(2-fluoro-4-(2,3,5,6-tetrafluorophenoxy)phenyl)-1H-pyrazolo[3,4-d]pyrimidin-1-yl)pyrrolidin-1-yl)acetonitrile] | – | 207 nM | –
C=CC(=O)N(C)CCCn1nc(-c2ccc(Oc3c(F)c(F)cc(F)c3F)cc2F)c2c(N)ncnc21 [Compound 86, N-(3-(4-amino-3-(2-fluoro-4-(2,3,5,6-tetrafluorophenoxy)phenyl)-1H-pyrazolo[3,4-d]pyrimidin-1-yl)propyl)-N-methylacrylamide] | – | 8 nM | –
C=CC(=O)N1CCCC(n2nc(-c3ccc(Oc4cccc(F)c4)cc3F)c3c(N)ncnc32)C1 (stereo not drawn) [Compound 18, 1-(3-(4-amino-3-(2-fluoro-4-(3-fluorophenoxy)phenyl)-1H-pyrazolo[3,4-d]pyrimidin-1-yl)piperidin-1-yl)prop-2-en-1-one] | < 10 nM | 3 nM | –
Nc1ncnc2c1c(-c1ccc(Oc3c(F)c(F)cc(F)c3F)cc1F)nn2C1CCCN(C(=O)C(=O)C2CC2)C1 (stereo not drawn) [Compound 81, 1-(3-(4-amino-3-(2-fluoro-4-(2,3,5,6-tetrafluorophenoxy)phenyl)-1H-pyrazolo[3,4-d]pyrimidin-1-yl)piperidin-1-yl)-2-cyclopropylethane-1,2-dione] | – | 2240 nM | –
NC(=O)/C=C/C(=O)N1CCCC(n2nc(-c3ccc(Oc4c(F)c(F)cc(F)c4F)cc3F)c3c(N)ncnc32)C1 (stereo not drawn) [Compound 41, (E)-4-(3-(4-amino-3-(2-fluoro-4-(2,3,5,6-tetrafluorophenoxy)phenyl)-1H-pyrazolo[3,4-d]pyrimidin-1-yl)piperidin-1-yl)-4-oxobut-2-enamide] | – | 17 nM | –
C=CC(=O)N[C@H]1CC[C@H](n2nc(-c3ccc(Oc4cccc(F)c4)cc3F)c3c(N)ncnc32)CC1 [Compound 14, N-((1r,4r)-4-(4-amino-3-(2-fluoro-4-(3-fluorophenoxy)phenyl)-1H-pyrazolo[3,4-d]pyrimidin-1-yl)cyclohexyl)acrylamide] | – | 9 nM | –
CN(C)CC(=O)N1CCCC(n2nc(-c3ccc(Oc4c(F)c(F)cc(F)c4F)cc3F)c3c(N)ncnc32)C1 (stereo not drawn) [Compound 62, 1-(3-(4-amino-3-(2-fluoro-4-(2,3,5,6-tetrafluorophenoxy)phenyl)-1H-pyrazolo[3,4-d]pyrimidin-1-yl)piperidin-1-yl)-2-(dimethylamino)ethanone] | – | 207 nM | –
Nc1ncnc2c1c(-c1ccc(Oc3c(F)c(F)cc(F)c3F)cc1F)nn2[C@@H]1CCN(C(=O)CCl)C1 [Compound 75, 1-((R)-3-(4-amino-3-(2-fluoro-4-(2,3,5,6-tetrafluorophenoxy)phenyl)-1H-pyrazolo[3,4-d]pyrimidin-1-yl)pyrrolidin-1-yl)-2-chloroethanone] | – | 3 nM | < 10 nM
Nc1ncnc2c1c(-c1ccc(Oc3c(F)c(F)cc(F)c3F)cc1F)nn2C1CCCN(C(=O)CC(=O)C(F)(F)F)C1 (stereo not drawn) [Compound 65, 1-(3-(4-amino-3-(2-fluoro-4-(2,3,5,6-tetrafluorophenoxy)phenyl)-1H-pyrazolo[3,4-d]pyrimidin-1-yl)piperidin-1-yl)-4,4,4-trifluorobutane-1,3-dione] | – | 119 nM | –
C=CC(=O)N1CCCC(n2nc(-c3ccc(C(=O)c4ccc(F)cc4)c(F)c3)c3c(N)ncnc32)C1 (stereo not drawn) [Compound 1, 1-(3-(4-amino-3-(3-fluoro-4-(4-fluorobenzoyl)phenyl)-1H-pyrazolo[3,4-d]pyrimidin-1-yl)piperidin-1-yl)prop-2-en-1-one] | – | 66 nM | –
C=CC(=O)N1CCC[C@H](n2nc(-c3ccc(Oc4c(F)c(F)cc(F)c4F)cc3F)c3c(N)ncnc32)C1 [Compound 34, 1-((S)-3-(4-amino-3-(2-fluoro-4-(2,3,5,6-tetrafluorophenoxy)phenyl)-1H-pyrazolo[3,4-d]pyrimidin-1-yl)piperidin-1-yl)prop-2-en-1-one] | – | 23 nM | –
CC(C)C(=O)C(=O)N1CC[C@@H](n2nc(-c3ccc(Oc4c(F)c(F)cc(F)c4F)cc3F)c3c(N)ncnc32)C1 [Compound 79, 1-((R)-3-(4-amino-3-(2-fluoro-4-(2,3,5,6-tetrafluorophenoxy)phenyl)-1H-pyrazolo[3,4-d]pyrimidin-1-yl)pyrrolidin-1-yl)-3-methylbutane-1,2-dione] | – | 1660 nM | –
N#CC(=O)N1CC[C@@H](n2nc(-c3ccc(Oc4c(F)c(F)cc(F)c4F)cc3F)c3c(N)ncnc32)C1 [Compound 112, 2-((R)-3-(4-amino-3-(2-fluoro-4-(2,3,5,6-tetrafluorophenoxy)phenyl)-1H-pyrazolo[3,4-d]pyrimidin-1-yl)pyrrolidin-1-yl)-2-oxoacetonitrile] | – | 107 nM | –
C=CC(=O)N1CCCC(n2nc(-c3ccc(C(=O)c4ccc(F)cc4)cc3F)c3c(N)ncnc32)C1 (stereo not drawn) [Compound 2, 1-(3-(4-amino-3-(2-fluoro-4-(4-fluorobenzoyl)phenyl)-1H-pyrazolo[3,4-d]pyrimidin-1-yl)piperidin-1-yl)prop-2-en-1-one] | – | 5 nM | –
C=C(C#N)C(=O)N1CCCC(n2nc(-c3ccc(Oc4c(F)c(F)cc(F)c4F)cc3F)c3c(N)ncnc32)C1 (stereo not drawn) [Compound 49, 2-(3-(4-amino-3-(2-fluoro-4-(2,3,5,6-tetrafluorophenoxy)phenyl)-1H-pyrazolo[3,4-d]pyrimidin-1-yl)piperidine-1-carbonyl)acrylonitrile] | – | 509 nM | –
CNC(=O)/C=C/C(=O)N1CCCC(n2nc(-c3ccc(Oc4c(F)c(F)cc(F)c4F)cc3F)c3c(N)ncnc32)C1 (stereo not drawn) [Compound 42, (E)-4-(3-(4-amino-3-(2-fluoro-4-(2,3,5,6-tetrafluorophenoxy)phenyl)-1H-pyrazolo[3,4-d]pyrimidin-1-yl)piperidin-1-yl)-N-methyl-4-oxobut-2-enamide] | – | 38 nM | –
COC(=O)NC(=O)/C=C\C(=O)N1CCCC(n2nc(-c3ccc(Oc4c(F)c(F)cc(F)c4F)cc3F)c3c(N)ncnc32)C1 (stereo not drawn) [Compound 47, (Z)-methyl 4-(3-(4-amino-3-(2-fluoro-4-(2,3,5,6-tetrafluorophenoxy)phenyl)-1H-pyrazolo[3,4-d]pyrimidin-1-yl)piperidin-1-yl)-4-oxobut-2-enoylcarbamate] | < 10 nM | 6 nM | –
